Measurements published in the supplement of paper PMC11061612.

Assays:
AZD7648 = compound: Cc1cc2ncnn2cc1Nc1ncc2c(n1)n(C1CCOCC1)c(=O)n2C [AZD7648]; details: max 10 µM
Outline: (§1)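 Cancer cell lines in 1536-well plates (7.5 μl DMEM/F12 or RPMI, 10% FBS) were held 24 hours at 37°C and 5% CO2 and then dosed for 72 hours at a final DMSO of typically 0.2%. Viability was taken from CellTiter-Glo 2.0 luminescence, scaled between blank-well and DMSO-well means. Curves were fitted as two-parameter logistic models with a non-linear mixed effects model, from which the single-agent IC50 was taken.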

Crizotinib = compound: C[C@@H](Oc1cc(-c2cnn(C3CCNCC3)c2)cnc1N)c1c(Cl)ccc(F)c1Cl [Crizotinib]; details: max 10 µM
Outline: as §1

Venetoclax = compound: CC1(C)CCC(CN2CCN(c3ccc(C(=O)NS(=O)(=O)c4ccc(NCC5CCOCC5)c([N+](=O)[O-])c4)c(Oc4cnc5[nH]ccc5c4)c3)CC2)=C(c2ccc(Cl)cc2)C1 [Venetoclax]; details: max 1 µM
Outline: as §1

Prexasertib = compound: COc1cccc(OCCCN)c1-c1cc(Nc2cnc(C#N)cn2)n[nH]1 [Prexasertib]; details: max 1 µM
Outline: as §1

AZD4320 = compound: CN(CC[C@H](CSC1=CC=CC=C1)NC2=C(C=C(C=C2)S(=O)(=O)NC(=O)C3=CC=C(C=C3)N4CCC(CC4)[C@H](C5=CC=CC=C5C6=CC=C(C=C6)Cl)O)S(=O)(=O)C(F)(F)F)CCO [AZD4320]; details: max 1 µM
Outline: as §1

Olaparib = compound: O=C(c1cc(Cc2n[nH]c(=O)c3ccccc23)ccc1F)N1CCN(C(=O)C2CC2)CC1 [Olaparib]; details: max 10 µM
Outline: as §1

AZD5991 = compound: Cc1c2c(nn1C)CSCc1cc(n(C)n1)CSc1cc(c3ccccc3c1)OCCCc1c(C(=O)O)n(C)c3c-2c(Cl)ccc13 [AZD5991]; details: max 1 µM
Outline: as §1

AZD1390 = compound: CC(C)n1c(=O)n(C)c2cnc3cc(F)c(-c4ccc(OCCCN5CCCCC5)nc4)cc3c21 [AZD1390]; details: max 0.3 µM
Outline: as §1

Selumetinib = compound: Cn1cnc2c(F)c(Nc3ccc(Br)cc3Cl)c(C(=O)NOCCO)cc21 [Selumetinib]; details: max 10 µM
Outline: as §1

AZD8186 = compound: C[C@@H](Nc1cc(F)cc(F)c1)c1cc(C(=O)N(C)C)cc2c(=O)cc(N3CCOCC3)oc12 [AZD8186]; details: max 3 µM
Outline: as §1

Capivasertib = compound: C1CN(CCC1(C(=O)N[C@@H](CCO)C2=CC=C(C=C2)Cl)N)C3=NC=NC4=C3C=CN4 [Capivasertib]; details: max 10 µM
Outline: as §1

AZD5153 = compound: COc1nnc2ccc(N3CCC(c4ccc(OCCN5CCN(C)C(=O)[C@H]5C)cc4)CC3)nn12 [AZD5153]; details: max 1 µM
Outline: as §1

Gefitinib = compound: COc1cc2ncnc(Nc3ccc(F)c(Cl)c3)c2cc1OCCCN1CCOCC1 [Gefitinib]; details: max 10 µM
Outline: as §1

Doxorubicin = compound: COc1cccc2c1C(=O)c1c(O)c3c(c(O)c1C2=O)C[C@@](O)(C(=O)CO)C[C@@H]3O[C@H]1C[C@H](N)[C@H](O)[C@H](C)O1 [Doxorubicin]; details: max 1 µM
Outline: as §1

AZD6738 = compound: C[C@@H]1COCCN1C2=NC(=NC(=C2)C3(CC3)[S@](=N)(=O)C)C4=C5C=CNC5=NC=C4 [AZD6738]; details: max 10 µM
Outline: as §1

Taselisib = compound: Cc1nc(-c2cn3c(n2)-c2ccc(-c4cnn(C(C)(C)C(N)=O)c4)cc2OCC3)n(C(C)C)n1 [Taselisib]; details: max 10 µM
Outline: as §1

SG3199 = compound: CC1=CN2[C@@H](C1)C=NC3=CC(=C(C=C3C2=O)OC)OCCCCCOC4=C(C=C5C(=C4)N=C[C@@H]6CC(=CN6C5=O)C)OC [SG3199]; details: max 0.001 µM
Outline: as §1

SN-38 = compound: CCc1c2c(nc3ccc(O)cc13)-c1cc3c(c(=O)n1C2)COC(=O)[C@]3(O)CC [SN-38]; details: max 0.3 µM
Outline: as §1

AZD2811 = compound: CCN(CCO)CCCOc1ccc2c(Nc3cc(CC(=O)Nc4cccc(F)c4)[nH]n3)ncnc2c1 [AZD2811]; details: max 1 µM
Outline: as §1

Lapatinib = compound: CS(=O)(=O)CCNCc1ccc(-c2ccc3ncnc(Nc4ccc(OCc5cccc(F)c5)c(Cl)c4)c3c2)o1 [Lapatinib]; details: max 10 µM
Outline: as §1

AZD0156 = compound: CN(C)CCCOc1ccc(-c2ccc3ncc4c(c3c2)n(C2CCOCC2)c(=O)n4C)cn1 [AZD0156]; details: max 3 µM
Outline: as §1

AZD1775 = compound: C=CCn1c(=O)c2cnc(Nc3ccc(N4CCN(C)CC4)cc3)nc2n1-c1cccc(C(C)(C)O)n1 [AZD1775]; details: max 3 µM
Outline: as §1

MK-2206 = compound: NC1(c2ccc(-c3nc4ccn5c(=O)[nH]nc5c4cc3-c3ccccc3)cc2)CCC1 [MK-2206]; details: max 10 µM
Outline: as §1

Alisertib = compound: COc1cc(Nc2ncc3c(n2)-c2ccc(Cl)cc2C(c2c(F)cccc2OC)=NC3)ccc1C(=O)O [Alisertib]; details: max 10 µM
Outline: as §1

Dasatinib = compound: CC1=C(C(=CC=C1)Cl)NC(=O)C2=CN=C(S2)NC3=CC(=NC(=N3)C)N4CCN(CC4)CCO [Dasatinib]; details: max 2 µM
Outline: as §1

Palbociclib = compound: CC(=O)c1c(C)c2cnc(Nc3ccc(N4CCNCC4)cn3)nc2n(C2CCCC2)c1=O [Palbociclib]; details: max 10 µM
Outline: as §1

Trametinib = compound: CC(=O)Nc1cccc(-n2c(=O)n(C3CC3)c(=O)c3c(Nc4ccc(I)cc4F)n(C)c(=O)c(C)c32)c1 [Trametinib]; details: max 1 µM
Outline: as §1

Savolitinib = compound: C[C@@H](c1ccc2nccn2c1)n1nnc2ncc(-c3cnn(C)c3)nc21 [Savolitinib]; details: max 1 µM
Outline: as §1

Cell Line	IC50, cell viability 72 h (AZD7648) [nM]	IC50, cell viability 72 h (Crizotinib) [nM]	IC50, cell viability 72 h (Venetoclax) [nM]	IC50, cell viability 72 h (Prexasertib) [nM]	IC50, cell viability 72 h (AZD4320) [nM]	IC50, cell viability 72 h (Olaparib) [nM]	IC50, cell viability 72 h (AZD5991) [nM]	IC50, cell viability 72 h (AZD1390) [nM]	IC50, cell viability 72 h (Selumetinib) [nM]	IC50, cell viability 72 h (AZD8186) [nM]	IC50, cell viability 72 h (Capivasertib) [nM]	IC50, cell viability 72 h (AZD5153) [nM]	IC50, cell viability 72 h (Gefitinib) [nM]	IC50, cell viability 72 h (Doxorubicin) [nM]	IC50, cell viability 72 h (AZD6738) [nM]	IC50, cell viability 72 h (Taselisib) [nM]	IC50, cell viability 72 h (SG3199) [nM]	IC50, cell viability 72 h (SN-38) [nM]	IC50, cell viability 72 h (AZD2811) [nM]	IC50, cell viability 72 h (Lapatinib) [nM]	IC50, cell viability 72 h (AZD0156) [nM]	IC50, cell viability 72 h (AZD1775) [nM]	IC50, cell viability 72 h (MK-2206) [nM]	IC50, cell viability 72 h (Alisertib) [nM]	IC50, cell viability 72 h (Dasatinib) [nM]	IC50, cell viability 72 h (Palbociclib) [nM]	IC50, cell viability 72 h (Trametinib) [nM]	IC50, cell viability 72 h (Savolitinib) [nM]
A101D (Melanoma)	> 10000	> 10000	> 1000	181	> 1000	> 10000	198	> 300	3920	> 3000	> 10000	155	> 10000	456	4490	2710	> 1	55.9	> 1000	> 10000	> 3000	687	> 10000	5360	> 2000	> 10000	148	> 1000
DMS-53 (Small Cell Lung Carcinoma)	> 10000	> 10000	> 1000	> 1000	174	> 10000	> 1000	> 300	> 10000	> 3000	> 10000	> 1000	> 10000	> 1000	> 10000	> 10000	> 1	37	> 1000	> 10000	> 3000	> 3000	> 10000	> 10000	> 2000	> 10000	> 1000	> 1000
DU-4475 (Breast Carcinoma)	> 10000	3780	> 1000	86.4	93.5	5190	> 1000	> 300	55.6	> 3000	> 10000	210	> 10000	32.3	1700	> 10000	> 1	1.93	> 1000	6760	> 3000	437	> 10000	543	> 2000	> 10000	1.18	> 1000
HCC1428 (Breast Carcinoma)	> 10000	> 10000	> 1000	> 1000	> 1000	> 10000	67.7	> 300	> 10000	> 3000	> 10000	483	> 10000	> 1000	> 10000	> 10000	> 1	> 300	> 1000	> 10000	> 3000	> 3000	> 10000	> 10000	> 2000	> 10000	> 1000	> 1000
JIMT-1 (Breast Carcinoma)	> 10000	> 10000	> 1000	85.1	> 1000	> 10000	> 1000	> 300	> 10000	> 3000	> 10000	> 1000	> 10000	> 1000	5640	4290	> 1	> 300	> 1000	> 10000	> 3000	1080		> 10000	1080	> 10000	> 1000	> 1000
JVM-2 (B-Cell Non-Hodgkin's Lymphoma)	> 10000	5650	> 1000	10.8	> 1000	> 10000	> 1000	> 300	> 10000	976	1280	53.1	> 10000	48.1	3230	307	> 1	3.86	238	9870	> 3000	98.3		203	44.6	1540	> 1000	> 1000
Jurkat (T-Lymphoblastic Leukemia)	> 10000	> 10000	> 1000	25.8	482	> 10000	292	> 300	> 10000	> 3000	2610	210	> 10000	415	3550	5810	> 1	7.97	> 1000	> 10000	> 3000	1740		8510	> 2000	7660	> 1000	> 1000
KYSE-140 (Esophageal Squamous Cell Carcinoma)	> 10000	> 10000	> 1000	12	> 1000	> 10000	> 1000	> 300	> 10000	> 3000	1660	827	1930	> 1000	660	1130	> 1	> 300	> 1000	7250	> 3000	423		> 10000	1230	> 10000	858	> 1000
LS-411N (Colorectal Carcinoma)	> 10000	> 10000	> 1000	42.4	> 1000	> 10000	> 1000	> 300	1340	> 3000	7040	169	> 10000	> 1000	4060	> 10000	> 1	> 300	> 1000	> 10000	> 3000	412	> 10000	> 10000	> 2000	> 10000	44.7	> 1000
NCI-H716 (Colorectal Carcinoma)	> 10000	> 10000	> 1000	181	> 1000	> 10000	> 1000	> 300	> 10000	> 3000	> 10000	775	> 10000	> 1000	> 10000	> 10000	> 1	> 300	> 1000	> 10000	> 3000	1600		2230	> 2000	> 10000	> 1000	> 1000
NCI-H2228 (Lung Adenocarcinoma)	> 10000	5480	> 1000	182	> 1000	> 10000	> 1000	> 300	> 10000	> 3000	> 10000	> 1000	> 10000	557	> 10000	2010	> 1	82.4	> 1000	> 10000	> 3000	2870		8940	> 2000	> 10000	955	> 1000
OACp4C (Esophageal Adenocarcinoma)	> 10000	3560	> 1000	116	117	> 10000	> 1000	> 300	5810	> 3000	1630	695	> 10000	323	3030	93.1	> 1	104	618	2120	> 3000	342		1900	180	> 10000	56.8	> 1000
RH-41 (Rhabdomyosarcoma)	> 10000	1980	> 1000	23.1	87	> 10000	88.5	> 300	> 10000	> 3000	314	96.8	> 10000	476	4120	93.1	> 1	57	> 1000	> 10000	> 3000	729		3430	> 2000	> 10000	> 1000	> 1000
huH-1 (Hepatocellular Carcinoma)	> 10000	> 10000	> 1000	93	> 1000	> 10000	> 1000	> 300	> 10000	> 3000	> 10000	> 1000	> 10000	> 1000	5640	> 10000	> 1	68	> 1000	> 10000	> 3000	2520		> 10000	> 2000	> 10000	> 1000	> 1000
